These results are taken from PMC9147323, “Phytochemical content, especially spermidine derivatives, presenting antioxidant and antilipoxygenase activities in Thai bee pollens” (PeerJ, 2022).

Several values for one entry are separate records, joined by “and”; a condition that tells them apart may be missing. Equal entries are not always repeated. Marks after values point to notes of the source that are not given here.

Test [1] in a line: DPPH free radical scavenging activity assay. As to conditions: mean ± 1 SD. On the procedure:
The potential of the partitioned extracts was determined as previously described ([Khongkarat et al., 2020]). Five different concentrations of each sample were prepared in DMSO. […] The absorbance was measured at a wavelength of 517 nm ([…]) using a microplate reader. Ascorbic acid (vitamin C) was used as the standard reference. Each assay was performed in triplicate. The free radical scavenging activity was calculated from Eq. (1): (1) % DPPH radical scavenging activity=A-B/A×100, where A is the […] the negative control and B is the […] of the treatment.
A general note: The DPPH test is a chemical assay of radical scavenging.

Test [2] in a line: ABTS radical scavenging activity / Trolox equivalent antioxidant capacity (TEAC). Particulars: for ABTS EC50: mean ± 1 SD; for ABTS (µmol TE/g): fractions after SiG60-CC and HPLC, mean ± 1SD.
Description: The TEAC assay followed the described method ([Suriyatem et al., 2017]). The stock ABTS^•+ solution was prepared by reacting 7 mM ABTS solution with 2.45 mM potassium persulphate solution in distilled water at a 1:1 (v/v) ratio in the dark at room temperature for 16 h before use. The working ABTS^•+ solution was prepared by diluting the stock ABTS^•+ solution (one mL) with ethanol (35 mL) to get an absorbance at 734 nm (A734) of 0.700 ± 0.025. […] The percentage of inhibition was calculated according to Eq. (2), (2) % ABTS radical scavenging activity=A−B/A×100, where A is the A734of the negative control and B is the A734of the treatment.
The target in another test is T1, LOX from soybean (Glycine max, UniProt P08170).
T1 sequence (P08170 1-839): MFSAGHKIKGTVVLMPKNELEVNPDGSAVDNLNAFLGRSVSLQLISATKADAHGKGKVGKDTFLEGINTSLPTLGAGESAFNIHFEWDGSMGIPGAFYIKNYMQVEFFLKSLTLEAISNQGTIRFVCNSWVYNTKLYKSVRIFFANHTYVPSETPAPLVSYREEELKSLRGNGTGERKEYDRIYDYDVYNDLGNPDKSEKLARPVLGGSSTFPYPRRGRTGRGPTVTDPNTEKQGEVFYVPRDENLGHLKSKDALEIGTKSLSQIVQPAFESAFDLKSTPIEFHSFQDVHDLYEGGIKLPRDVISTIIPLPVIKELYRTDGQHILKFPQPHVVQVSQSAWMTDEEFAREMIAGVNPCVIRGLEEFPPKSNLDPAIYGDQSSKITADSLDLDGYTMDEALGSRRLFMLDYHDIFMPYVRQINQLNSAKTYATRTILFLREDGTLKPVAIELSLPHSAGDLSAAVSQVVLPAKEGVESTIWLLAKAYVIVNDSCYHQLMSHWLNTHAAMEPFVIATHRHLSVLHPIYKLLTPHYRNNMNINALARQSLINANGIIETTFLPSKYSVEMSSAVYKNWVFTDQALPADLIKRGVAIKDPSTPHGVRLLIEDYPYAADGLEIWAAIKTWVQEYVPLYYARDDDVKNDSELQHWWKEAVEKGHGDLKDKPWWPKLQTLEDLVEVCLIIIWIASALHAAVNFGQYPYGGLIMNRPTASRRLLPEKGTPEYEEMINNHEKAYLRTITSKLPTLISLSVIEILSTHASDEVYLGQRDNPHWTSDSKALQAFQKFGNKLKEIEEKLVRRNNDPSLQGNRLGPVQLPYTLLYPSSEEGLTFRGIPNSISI
Description: In vitro LOXI activity. As to conditions: mean ± 1 SD.

Test [3] can be described thus: Ferric reducing antioxidant power (FRAP). Particulars: fractions after SiG60-CC and HPLC; mean ± 1SD. On the procedure: The FRAP assay was performed as previously described ([Sun et al., 2017]). The FRAP reagent was freshly prepared by mixing 100 mL of 300 mM acetate buffer (pH 3.6), 10 mL of 10 mM 2,4,6-tris(2pyridyl)-s-triazine solution in 40 mM hydrochloric acid, and 10 mL of 20 mM ferric chloride solution. Later, 100 µL of the sample at a desired concentration was added to three mL of the FRAP reagent and incubated at 37 °C in a water bath for 6 min. The absorbance was measured at a wavelength of 593 nm. Aqueous solutions of ferrous sulfate (0–2,000 µM) were used to establish the standard graph and the reducing capacity was expressed as µmole of Fe^2+/g extract. Each assay was performed in triplicate.

In the case of `O=C1O[C@H]([C@@H](O)CO)C(O)=C1O` [Ascorbic acid, reference compound], the “DPPH EC50” value is 68.00 ± 1.13^a µg/mL and 68.00 ± 1.13^b µg/mL in test [1]; 68.00 ± 1.13 µg/mL in test [1] (listed as ascorbic acid). For the same compound, the “ABTS EC50” value in test [2] was 44.54 ± 0.19^a µg/mL and 44.54 ± 0.19^c µg/mL and 44.54 ± 0.19^b µg/mL; in test [2] (listed as ascorbic acid), 44.54 ± 0.19 µg/mL.
Turning to `COc1cc(C=CC(=O)NCCCCN(CCCNC(=O)C=Cc2ccc(O)c(OC)c2)C(=O)C=Cc2ccc(O)c(OC)c2)ccc1O` [DCMMBP3-1, N^1, N^5, N^10-triferuloyl spermidine], in test [1], the “DPPH EC50” value is recorded as 53.05 ± 2.60^a µg/mL. Also, in test [2], the “ABTS (µmol TE/g)” value is given as 2,527.63 ± 7.99^a µmol TE/g and the “ABTS EC50” value is reported as 25.38 ± 0.67^a µg/mL. At LOX from soybean, the “LOXI IC50” value is 11.31 ± 0.46^a µg/mL. The “FRAP (µmol Fe^2+/g)” value in test [3] is 3,477.33 ± 52.07^a µmol Fe^2+/g.
As for `COc1cc(/C=C/C(=O)NCCCCN(CCCNC(=O)/C=C/c2ccc(O)c(OC)c2)C(=O)/C=C/c2ccc(O)c(OC)c2)ccc1O` [DCMMBP3-2, N^1, N^5, N^10-tri-(E, E, E)-feruloyl spermidine], the “DPPH EC50” value in test [1] was 57.7 ± 2.77^a µg/mL. In test [2], the “ABTS (µmol TE/g)” value is listed as 2,339.16 ± 34.62^b µmol TE/g and the “ABTS EC50” value is 28.29 ± 1.05^b µg/mL. The “LOXI IC50” value at LOX from soybean was 11.57 ± 0.93^a µg/mL. Moreover, the “FRAP (µmol Fe^2+/g)” value in test [3] is 3,091.78 ± 44.48^b µmol Fe^2+/g.
